Where two headings read alike, the source gives them in different places.

The test system of this assay is poliovirus type 1 (Mahoney strain). Format: cell-based. As to conditions: 0.7% strength formaldehyde.

`C=O` [formaldehyde]: the virus concentration (exposure time 5 min) was determined as 1.05e+06 mL⁻¹, the virus concentration (exposure time 15 min) is 1000 mL⁻¹ and the virus concentration (exposure time 60 min) is ≤ 500 mL⁻¹.

For the origin of these results see patent publication US8221733B2, “Virucidal disinfectant” (priority 2002, dated 2012).
